From ChEMBL document CHEMBL4765288, “Synthesis of novel monocarbonyl curcuminoids, evaluation of their efficacy against MRSA, including ex vivo infection model and their mechanistic studies” (Eur J Med Chem, 2020)
≈ marks a conversion by molar mass, not a printed value. Calls of active or inactive are those of the source. The calls are words filed in the database; no cut-off is given here. Positions of bridges follow the written chain, without caps; N, C: chain ends. Non-standard residues stand in square brackets, D forms with d. Residues, ends and D or L forms follow the SMILES beside them. *: point of attachment. X1 = CC[C@H](C)CCCCC(=O)*; Dab = NCC[C@H](N)C(=O)O

Columns and labels:
[1] = tested on: Escherichia coli; assay: Antibacterial activity against Escherichia coli ATCC 25922 after 16 to 18 hrs by CLSI-based microbroth dilution method; assay type: functional; settings: time 16-18 hrs
[2] = tested on: Escherichia coli; assay: Antibacterial activity against Escherichia coli ATCC 11775 after 16 to 18 hrs by CLSI-based microbroth dilution method; assay type: functional; settings: time 16-18 hrs
[3] = tested on: Escherichia coli; assay: Antibacterial activity against Escherichia coli E-52 after 16 to 18 hrs by CLSI-based microbroth dilution method; assay type: functional; settings: time 16-18 hrs
[4] = tested on: Escherichia coli; assay: Antibacterial activity against Escherichia coli E-59 after 16 to 18 hrs by CLSI-based microbroth dilution method; assay type: functional; settings: time 16-18 hrs
[5] = tested on: Escherichia coli; assay: Antibacterial activity against Escherichia coli E-74 after 16 to 18 hrs by CLSI-based microbroth dilution method; assay type: functional; settings: time 16-18 hrs
[6] = tested on: Staphylococcus aureus; assay: Antibacterial activity against methicillin susceptible Staphylococcus aureus ATCC 29213 after 16 to 18 hrs by CLSI-based microbroth dilution method; assay type: functional; settings: time 16-18 hrs
[7] = tested on: Staphylococcus aureus; assay: Antibacterial activity against methicillin resistant Staphylococcus aureus ATCC 33591 after 16 to 18 hrs by CLSI-based microbroth dilution method; assay type: functional; settings: time 16-18 hrs
[8] = tested on: Staphylococcus aureus; assay: Antibacterial activity against methicillin resistant Staphylococcus aureus ATCC S-28 after 16 to 18 hrs by CLSI-based microbroth dilution method; assay type: functional; settings: time 16-18 hrs
[9] = tested on: Staphylococcus aureus; assay: Antibacterial activity against methicillin resistant Staphylococcus aureus S-30 after 16 to 18 hrs by CLSI-based microbroth dilution method; assay type: functional; settings: time 16-18 hrs
[10] = tested on: Staphylococcus aureus; assay: Antibacterial activity against methicillin resistant Staphylococcus aureus S-33 after 16 to 18 hrs by CLSI-based microbroth dilution method; assay type: functional; settings: time 16-18 hrs
[11] = tested on: Staphylococcus aureus; assay: Antibacterial activity against methicillin resistant Staphylococcus aureus S-34 after 16 to 18 hrs by CLSI-based microbroth dilution method; assay type: functional; settings: time 16-18 hrs
[12] = tested on: Staphylococcus aureus; assay: Antibacterial activity against methicillin resistant Staphylococcus aureus S-37 after 16 to 18 hrs by CLSI-based microbroth dilution method; assay type: functional; settings: time 16-18 hrs
[13] = tested on: Staphylococcus aureus; assay: Antibacterial activity against methicillin resistant Staphylococcus aureus S-41 after 16 to 18 hrs by CLSI-based microbroth dilution method; assay type: functional; settings: time 16-18 hrs
[14] = Hemolytic activity in mouse RBC at 75 ug/ml after 1 hr by microplate reader analysis relative to control; assay type: ADME, cell-based, Erythrocyte; settings: mouse red blood cells (erythrocytes), at 75 µg/mL, read-out: Activity
[15] = Hemolytic activity in mouse RBC at 150 ug/ml after 1 hr by microplate reader analysis relative to control; assay type: ADME, cell-based, Erythrocyte; settings: mouse red blood cells (erythrocytes), at 150 µg/mL, read-out: Activity
[16] = Cytotoxicity against mouse 3T3 cells assessed as reduction in cell viability at 75 ug/ml after 4 hrs by MTT assay (reference value: 90.42 +/- 0.03%); assay type: cell-based; settings: 3t3, 4 h, at 75 µg/mL
[17] = Cytotoxicity against mouse 3T3 cells assessed as reduction in cell viability at 150 ug/ml after 4 hrs by MTT assay (reference value: 90.42 +/- 0.03%); assay type: cell-based; settings: at 150 µg/mL, read-out: Activity
[18] = tested on: Cell membrane; assay: Induction of cytoplasmic membrane depolarization in methicillin resistant Staphylococcus aureus ATCC 33591 at 5 times MIC by [DiSC3(5)] probe based fluorescence assay relative to control; assay type: subcellular; settings: time 2.0 hrs
[19] = tested on: Cell membrane; assay: Induction of cytoplasmic membrane permeabilization in Staphylococcus aureus ATCC 33591 at 5 times MIC measured after 2 min using calcein-AM as substrate by dye based fluorescence assay relative to control; assay type: subcellular
[20] = tested on: Cell membrane; assay: Induction of cell membrane damage in Staphylococcus aureus ATCC 33591 at 5 times MIC assessed as loss of cell viability measured after 2 hrs by confocal microscopy
[21] = tested on: Cell membrane; assay: Induction of cell membrane damage in Staphylococcus aureus ATCC 33591 assessed as membrane surface perturbation with multiple dent and bleb formation at 5 times MIC after 4 hrs by scanning electron microscopy; assay type: subcellular
[22] = tested on: Cell membrane; assay: Induction of cytoplasmic membrane permeabilization in Staphylococcus aureus ATCC 33591 at 5 times MIC measured after 120 min using calcein-AM as substrate by dye based fluorescence assay relative to control; assay type: subcellular
[23] = tested on: Staphylococcus aureus; assay: Antibacterial activity against methicillin susceptible Staphylococcus aureus ATCC 29213 infected in mouse 3T3 cells assessed as bacterial load at 5 times MIC after 16 hrs (reference value: 6.6 log CFU/ml); assay type: functional
[24] = tested on: Staphylococcus aureus; assay: Bactericidal activity against methicillin-resistant Staphylococcus aureus assessed as complete bacterial killing at 5 times MIC measured after 6 hrs by time-kill assay; assay type: functional, organism-based
[25] = tested on: Staphylococcus aureus; assay: Bactericidal activity against methicillin-resistant Staphylococcus aureus assessed as reduction in viable count at 5 times MIC measured upto 4 hrs by time-kill assay; assay type: functional; settings: time hrs <=4
[26] = tested on: Staphylococcus aureus; assay: Bactericidal activity against methicillin-resistant Staphylococcus aureus assessed as in viable cells at 5 times MIC measured after 1 hr by time-kill assay; assay type: functional

Compound | MIC [1] [µg/mL] | MIC [2] [µg/mL] | MIC [3] [µg/mL] | MIC [4] [µg/mL] | MIC [5] [µg/mL] | MIC [6] [µg/mL] | MIC [7] [µg/mL] | MIC [8] [µg/mL] | MIC [9] [µg/mL] | MIC [10] [µg/mL] | MIC [11] [µg/mL] | MIC [12] [µg/mL] | MIC [13] [µg/mL] | hemolysis at 1 h, 75 ug/ml [14] [%] | hemolysis at 1 h, 150 ug/ml [15] [%] | Activity [16] [%] | viability at 4 h, 150 ug/ml [17] [%] | Activity [18] [%] | Activity [19] [%] | Activity [20] | further results
CN[C@H](CC(C)C)C(=O)N[C@H]1C(=O)N[C@@H](CC(N)=O)C(=O)N[C@H]2C(=O)N[C@H]3C(=O)N[C@H](C(=O)N[C@H](C(=O)O)c4cc(O)cc(O)c4-c4cc3ccc4O)[C@H](O)c3ccc(c(Cl)c3)Oc3cc2cc(c3O[C@@H]2O[C@H](CO)[C@@H](O)[C@H](O)[C@H]2O[C@H]2C[C@](C)(N)[C@H](O)[C@H](C)O2)Oc2ccc(cc2Cl)[C@H]1O [VANCOMYCIN] | 64 (≈ 44.2 µM) | 64 (≈ 44.2 µM) | 128 (≈ 88.3 µM) | 128 (≈ 88.3 µM) | 128 (≈ 88.3 µM) |  |  |  |  |  |  |  |  |  |  |  |  |  |  |  | 
COc1cc(/C=C2\CC/C(=C\c3ccc(OCCCCN4CCCCCC4)c(OC)c3)C2=O)ccc1OCCCCN1CCCCCC1.Cl.Cl | 16 | 16 | 32 | 32 | 32 | 2 | 4 | 8 | 8 | 8 | 16 | 16 | 8 | 6.19 | 9.32 | 7.03 | 14.8 | 90.7 | 69.7 | Active | Activity [21]: Active; Activity [22]: 89%; Activity [23]: 3.23 log10CFU/ml
COc1cc(/C=C/C(=O)CC(=O)/C=C/c2ccc(O)c(OC)c2)ccc1O [CURCUMIN] |  |  |  |  |  | > 256 | > 256 |  |  |  |  |  |  |  |  |  |  |  |  |  | 
Cc1onc(-c2ccccc2)c1C(=O)N[C@@H]1C(=O)N2[C@@H]1SC(C)(C)[C@@H]2C(=O)O [OXACILLIN] |  |  |  |  |  | 0.5 (≈ 1.25 µM) | 64 (≈ 159 µM) | 128 (≈ 319 µM) | 128 (≈ 319 µM) | 128 (≈ 319 µM) | 128 (≈ 319 µM) | 128 (≈ 319 µM) | 128 (≈ 319 µM) |  |  |  |  |  |  |  | 
CC[C@H](C)CCCCC(=O)N[C@@H](CCN)C(=O)N[C@H](C(=O)N[C@@H](CCN)C(=O)N[C@H]1CCNC(=O)[C@H]([C@@H](C)O)NC(=O)[C@H](CCN)NC(=O)[C@H](CCN)NC(=O)[C@H](CC(C)C)NC(=O)[C@@H](Cc2ccccc2)NC(=O)[C@H](CCN)NC1=O)[C@@H](C)O (X1-[Dab]T[Dab][Dab][Dab][dF]L[Dab][Dab]T; lactam 4-C) | 0.5 (≈ 0.415 µM) | 0.5 (≈ 0.415 µM) | 1 (≈ 0.831 µM) | 1 (≈ 0.831 µM) | 1 (≈ 0.831 µM) |  |  |  |  |  |  |  |  |  |  |  |  |  |  |  | 
COc1cc(/C=C2\CC/C(=C\c3ccc(OCCCN4CCCCCC4)c(OC)c3)C2=O)ccc1OCCCN1CCCCCC1.Cl.Cl | 16 | 16 | 32 | 32 | 32 | 2 | 4 | 8 | 8 | 8 | 8 | 8 | 8 | 6.19 | 9.32 | 7.03 | 14.8 | 95.7 | 80.6 | Active | Activity [21]: Active; Activity [24]: Active; Activity [22]: 93.2%; Activity [23]: 3.91 log10CFU/ml
Cl.Cl.O=C1/C(=C/c2ccc(OCCCCN3CCCCCC3)cc2)CC/C1=C\c1ccc(OCCCCN2CCCCCC2)cc1 | 16 | 16 | 16 | 32 | 32 | 4 | 4 | 4 | 4 | 8 | 8 | 8 | 8 | 6.19 | 9.32 | 7.03 | 14.8 | 95.7 | 76.6 | Active | Activity [21]: Active; Activity [25]: 4.3 log10CFU/ml; Activity [22]: 90.3%; Activity [23]: 3 log10CFU/ml
CCOc1cc(/C=C2\CC/C(=C\c3ccc(OCCCN4CCCC(C)C4)c(OCC)c3)C2=O)ccc1OCCCN1CCCC(C)C1.Cl.Cl (stereo not given) | 8 | 8 | 16 | 32 | 32 | 2 | 4 | 8 | 8 | 8 | 8 | 8 | 8 | 6.19 | 9.32 | 7.03 | 14.8 | 87 | 60.2 | Active | Activity [26]: -3.4 log10CFU/ml; Activity [21]: Active; Activity [22]: 92.7%; Activity [23]: 3.99 log10CFU/ml
